# Data: US11261425B2, “Method for inducing differentiation of pluripotent stem cells into neural precursor cells” (Kyoto University, priority 2009, dated 2022)
# Legend:
# Type in all cases: cell-based, Human
# iPS cells (G4) = assay: Differentiation of iPS cells into neural precursor cells on PA6 feeder cells (SDIA method), immunostaining; conditions: day 14, PA6 feeder cells; for Nestin and Oct3/4 immunostaining of colonies: 2 μM Dorsomorphin and/or 10 μM SB431542
# Method: Human ES cells (KhES-1, KhES-2, and KhES-3) from the Institute for Frontier Medical Sciences, Kyoto University were provided, and they were then cultured by the known method (Suemori H, et al. Biochem Biophys Res Commun. 345: 926-32, 2006). Human iPS cells (G1, G4, B6, and B7) were provided by Dr. Yamanaka of Kyoto University and then cultured by the known method (Takahashi K, et al. Cell. 131: 861-72, 2007 and Nakagawa M, et al. Nat Biotechnol. 26: 101-6, 2008). PA6 cells (RIKEN BRC Cell Bank) were seeded on a gelatin-coated dish and then cultured using MEM alpha containing 10% FBS. Upon induction of differentiation, cells were cultured for at least one day, confirmed to be confluent, and then used as feeder cells. Human iPS cells (404C2) was established by introducing reprogramming factors (OCT3/4, SOX2, KLF4, L-MYC, LIN28, and shRNA for p53) into human fibroblast using a vector containg EBNA-1 and oriP (U.S. 61/232,402 and U.S. 61/307,306), then cultured by same method of other human iPS cells.
# ES cells or iPS cells were cultured using STO cells as feeder cells. One day before the initiation of differentiation induction, 10 μM ROCK inhibitor (Y27632) was added into a medium. CTK dissociation solution (0.25% Trypsin, 1 mg/ml Collagenase and KSR 20%, and 1 mM CaCl2) was added at 500 μl/10 cm dish, followed by 3 to 5 minutes of incubation at 37° C. The dish was gently tapped to remove feeder cells. After washing once with PBS, the CTK dissociation solution was added again, followed by 10-15 minutes of incubation at 37° C. ES cells or iPS cells detached from the dish were suspended in 5 ml of differentiation medium (DMEM/Ham's F12 containing 5% knockout serum replacement (KSR), 2 mM L-glutamine, non-essential amino acids, and 1 μM 2-mercaptoethanol (2-ME)). After centrifugation, supernatants were removed. Again, the cells were suspended in 1 ml of the differentiation medium and then separated from each other by pipetting, so as to result in small aggregates (10-20 cells/clump).
# The obtained small aggregates were seeded on dishes having PA6 as feeder cells at concentrations ranging from 2500 to 5000 cells/cm^2. As a medium, a differentiation medium containing 2 μM Dorsomorphin (Sigma) and/or 10 μM SB431542 (Sigma) and/or 300 ng/ml Noggin (HZ-1026: HumanZyme) or 2 μl/well DMSO was used. 10 μM Y27632 was added only in the initial culture. Medium exchange was not performed until day 7, and it was then performed once every 3 to 4 days.
# On day 14 after differentiation induction, cells were fixed with 4% PFA for 30 minutes at 4° C. and then immunostained in PBS with each antibody listed in Table 1.
# [1] = test system: KhES-1, KhES-2, KhES-3, G1, G4, B6, and B7; assay: SDIA method, colony counts per well in 7 ES/iPS cell lines; conditions: day 14, 7 cell lines; for Number of colonies per well compared with control group or Noggin group: n=28
# Method: When at least one positive cell could be confirmed within a colony, such colony was counted as a positive colony. […] Biochem Biophys Res Commun. 345: 926-32, 2006). Human iPS cells (G1, G4, B6, and B7) were provided by Dr. Yamanaka of Kyoto University and then cultured by the known method (Takahashi K, et al. Cell. 131: 861-72, 2007 and Nakagawa M, et al. Nat Biotechnol. 26: 101-6, 2008). PA6 cells (RIKEN BRC Cell Bank) were seeded on a gelatin-coated dish and then cultured using MEM alpha containing 10% FBS. Upon induction of differentiation, cells were cultured for at least one day, confirmed to be confluent, and then used as feeder cells. […] ES cells or iPS cells were cultured using STO cells as feeder cells. One day before the initiation of differentiation induction, 10 μM ROCK inhibitor (Y27632) was added into a medium. […] The dish was gently tapped to remove feeder cells. After washing once with PBS, the CTK dissociation solution was added again, followed by 10-15 minutes of incubation at 37° C. ES cells or iPS cells detached from the dish were suspended in 5 ml of differentiation medium (DMEM/Ham's F12 containing 5% knockout serum replacement (KSR), 2 mM L-glutamine, non-essential amino acids, and 1 μM 2-mercaptoethanol (2-ME)). After centrifugation, supernatants were removed. Again, the cells were suspended in 1 ml of the differentiation medium and then separated from each other by pipetting, so as to result in small aggregates (10-20 cells/clump). The obtained small aggregates were seeded on dishes having PA6 as feeder cells at concentrations ranging from 2500 to 5000 cells/cm^2. As a medium, a differentiation medium containing 2 μM Dorsomorphin (Sigma) and/or 10 μM SB431542 (Sigma) and/or 300 ng/ml Noggin (HZ-1026: HumanZyme) or 2 μl/well DMSO was used. 10 μM Y27632 was added only in the initial culture. Medium exchange was not performed until day 7, and it was then performed once every 3 to 4 days. On day 14 after differentiation induction, cells were fixed with 4% PFA for 30 minutes at 4° C. and then immunostained in PBS with each antibody listed in Table 1. […]
# [2] = test system: KhES-1 cell line and KhES-4 cell line; assay: Optimal concentration of LDN-193189 with SB431542 (SDIA method), KhES-1 and KhES-4; conditions: day 14, with SB431542, PA6 cells
# Method: (§1) On one day before the initiation of differentiation induction, CTK dissociation solution (0.25% Trypsin, 1 mg/ml Collagenase and KSR 20%, and 1 mM CaCl2) was added to ES cells (KhES-1, KhES-4, and KhES-5), colonies were dissociated. ES cells detached from the dish were subjected to removal of MEF on gelatin coating, suspended in a differentiation medium (DMEM/Ham's F12 containing 5% knockout serum replacement (KSR), 2 mM L-glutamine, non-essential amino acids, and 1 μM 2-mercaptoethanol (2-ME)) for 1 hour, and then separated by pipetting so as to result in small aggregates (10-20 cells/clump). The obtained small aggregates were seeded on PA6 at a concentration ranging from 2500 to 5000 cells/cm^2. On day 4 of culture, the medium was exchanged with a differentiation medium supplemented with 10 μM SB431542 and 5-1,000 nM LDN-193189. Three days later, the medium was exchanged with a differentiation medium without SB431542 and LDN-193189. Thereafter, medium exchanges with such a differentiation medium without SB431542 and LDN-193189 were performed at 2- to 3-day intervals.
# Human ES cells (KhES-1, KhES-4, and KhES-5) were subjected to differentiation induction performed by a stromal cell-derived inducing activity method (SDIA method) using LDN-193189 at a concentration ranging from 5 nM to 1000 nM, in order to determine an optimal concentration of LDN-193189.
# KhES-5 cells = assay: Optimal concentration of LDN-193189 with SB431542 (SDIA method), KhES-5; conditions: day 14, with SB431542, PA6 cells
# Method: Differentiation was induced by co-culturing an ES cell line (Kh-ES5) with PA6 cells according to the SDIA method, then culturing the cells in a medium supplemented with 5-500 nM LDN-193189 and SB431542.
# as §1, with “intervals. […]” for “intervals.”
compound,measurement,setting,value
"c1cc(-c2cnn3cc(-c4ccc(OCCN5CCCCC5)cc4)cnc23)ccn1 [Dorsomorphin, 6-[4-(2-piperidin-1-yl-ethoxy)phenyl]-3-pyridin-4-yl-pyrazolo[1,5-a]pyrimidine]",Immunostaining for undifferentiation markers Nanog or SSEA3 and neural markers Pax6 or PSA-NCAM,iPS cells (G4),undifferentiated cells and neural precursor cells coexisted
same,Nestin and Oct3/4 immunostaining of colonies,iPS cells (G4),colonies positive for both Nestin and Oct3/4 were confirmed
same,Number of colonies per well compared with control group or Noggin group,[1],significantly higher
"c1ccc2c(-c3cnn4cc(-c5ccc(N6CCNCC6)cc5)cnc34)ccnc2c1 [LDN-193189, 4-(6-(4-(piperazin-1-yl)phenyl)pyrazolo[1,5-a]pyrimidin-3-yl)quinoline]",Concentration of LDN-193189 at which cells were stained to the highest degree with Pax6,[2],20 nM
same,Concentration of LDN-193189 at which differentiation into neural precursor cells was induced relatively successfully (Nestin staining),KhES-5 cells,≥ 50 nM
same,Increase of effect at LDN-193189 concentration higher than 50 nM,KhES-5 cells,not observed that the effect was increased
"NC(=O)c1ccc(-c2nc(-c3ccc4c(c3)OCO4)c(-c3ccccn3)[nH]2)cc1 [SB431542, 4-[4-(1,3-benzodioxol-5-yl)-5-(2-pyridinyl)-1H-imidazol-2-yl]benzamide]",Immunostaining for undifferentiation markers Nanog or SSEA3 and neural markers Pax6 or PSA-NCAM,iPS cells (G4),neural precursor cells appeared in aggregated cell populations
same,Nestin and Oct3/4 immunostaining of colonies,iPS cells (G4),aggregated cell populations were positive for Nestin
same,Elimination of undifferentiated cells (Nestin-positive vs Oct3/4-positive colonies),[1],effective in elimination of undifferentiated cells
same,Number of colonies per well compared with control group or Noggin group,[1],significantly higher
